Among the data in ChEMBL document CHEMBL5465560, “Selectivity Literature for EUbOPEN Chemogenomic Library” (2024) are % of control, % of inhibition and % of activity values, retold here.

The target of assay [1] is Tyrosine-protein kinase Fgr (Homo sapiens) (UniProt P09769). The experiment in a line: Selectivity interaction (ProQinase) EUB0000171b FGR.
Assay [2] in a line: Selectivity interaction (KinomeScan (DiscoverX)) EUB0001079a CDPK1. As to conditions: at 1 µM.
Assay [3] deals with MAP kinase-interacting serine/threonine-protein kinase 2 (Homo sapiens, UniProt Q9HBH9). The assay can be described thus: Selectivity interaction (KinomeScan (DiscoverX)) EUB0000092b MKNK2. The conditions noted are these: at 10 µM.
Assay [4] concerns the target T1, Dual specificity protein kinase TTK (Homo sapiens) (UniProt P33981).
T1 sequence (whole entry): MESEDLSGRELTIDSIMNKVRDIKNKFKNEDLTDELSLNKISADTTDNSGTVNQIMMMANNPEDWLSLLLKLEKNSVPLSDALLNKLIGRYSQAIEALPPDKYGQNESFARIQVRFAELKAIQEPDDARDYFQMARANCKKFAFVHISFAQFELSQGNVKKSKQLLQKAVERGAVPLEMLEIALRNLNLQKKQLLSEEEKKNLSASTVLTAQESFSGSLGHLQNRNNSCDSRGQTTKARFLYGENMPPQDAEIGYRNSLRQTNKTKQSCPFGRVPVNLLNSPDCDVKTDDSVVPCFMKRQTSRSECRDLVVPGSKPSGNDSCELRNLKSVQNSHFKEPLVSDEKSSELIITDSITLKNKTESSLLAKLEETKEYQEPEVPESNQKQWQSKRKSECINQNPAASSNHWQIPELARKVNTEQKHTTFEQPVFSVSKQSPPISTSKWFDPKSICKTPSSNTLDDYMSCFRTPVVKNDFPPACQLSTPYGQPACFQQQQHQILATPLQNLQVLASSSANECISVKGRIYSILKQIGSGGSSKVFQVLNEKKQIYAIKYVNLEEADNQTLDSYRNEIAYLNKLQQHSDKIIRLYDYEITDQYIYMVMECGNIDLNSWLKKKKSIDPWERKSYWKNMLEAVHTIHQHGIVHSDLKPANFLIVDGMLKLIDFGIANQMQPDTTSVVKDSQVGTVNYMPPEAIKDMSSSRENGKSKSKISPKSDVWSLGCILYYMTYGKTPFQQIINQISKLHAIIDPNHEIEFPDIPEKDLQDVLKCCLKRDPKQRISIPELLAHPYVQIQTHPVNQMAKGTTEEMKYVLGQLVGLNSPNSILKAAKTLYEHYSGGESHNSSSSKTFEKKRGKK
The assay can be described thus: Selectivity interaction (KinomeScan (DiscoverX)) EUB0000655a TTK. The conditions noted are these: at 10 µM.

Assay [5] concerns the target T2, Serine/threonine-protein kinase 36 (Homo sapiens) (UniProt Q9NRP7).
T2 sequence (whole entry): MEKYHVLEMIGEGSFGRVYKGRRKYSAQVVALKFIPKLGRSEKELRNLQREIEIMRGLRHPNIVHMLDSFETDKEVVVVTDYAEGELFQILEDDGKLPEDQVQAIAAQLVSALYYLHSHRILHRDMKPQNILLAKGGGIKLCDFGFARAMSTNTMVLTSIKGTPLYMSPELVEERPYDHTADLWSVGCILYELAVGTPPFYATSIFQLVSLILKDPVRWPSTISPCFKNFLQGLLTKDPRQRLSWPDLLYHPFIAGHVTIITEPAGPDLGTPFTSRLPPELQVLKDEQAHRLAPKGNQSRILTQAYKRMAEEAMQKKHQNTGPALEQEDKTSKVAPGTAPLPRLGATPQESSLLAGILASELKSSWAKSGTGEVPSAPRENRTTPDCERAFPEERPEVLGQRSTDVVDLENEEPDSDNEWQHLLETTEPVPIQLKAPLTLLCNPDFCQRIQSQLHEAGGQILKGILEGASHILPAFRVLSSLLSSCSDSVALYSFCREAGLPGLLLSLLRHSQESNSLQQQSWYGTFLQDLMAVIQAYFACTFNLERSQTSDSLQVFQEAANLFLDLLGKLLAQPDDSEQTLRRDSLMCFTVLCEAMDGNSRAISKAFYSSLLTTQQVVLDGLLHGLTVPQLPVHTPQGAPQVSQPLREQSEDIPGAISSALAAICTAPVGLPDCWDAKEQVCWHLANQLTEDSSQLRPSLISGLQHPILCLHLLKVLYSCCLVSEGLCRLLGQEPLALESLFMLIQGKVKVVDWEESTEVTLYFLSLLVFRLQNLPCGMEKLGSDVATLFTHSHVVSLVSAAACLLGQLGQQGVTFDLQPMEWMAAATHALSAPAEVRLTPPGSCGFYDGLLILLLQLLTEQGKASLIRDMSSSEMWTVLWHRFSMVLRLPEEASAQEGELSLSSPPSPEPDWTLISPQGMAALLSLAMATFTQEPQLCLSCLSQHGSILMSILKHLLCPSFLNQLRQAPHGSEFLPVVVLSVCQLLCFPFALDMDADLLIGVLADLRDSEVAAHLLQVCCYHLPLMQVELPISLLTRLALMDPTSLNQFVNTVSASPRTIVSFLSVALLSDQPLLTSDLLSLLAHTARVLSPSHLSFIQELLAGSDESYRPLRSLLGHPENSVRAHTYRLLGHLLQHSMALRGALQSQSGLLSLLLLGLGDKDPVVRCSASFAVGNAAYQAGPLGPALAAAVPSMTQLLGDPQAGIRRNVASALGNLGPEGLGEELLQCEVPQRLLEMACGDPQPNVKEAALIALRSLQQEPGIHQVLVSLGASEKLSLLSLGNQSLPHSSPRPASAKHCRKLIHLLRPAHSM
The assay can be described thus: Selectivity interaction (KinomeScan (DiscoverX)) EUB0000655a STK36. The conditions noted are these: at 10 µM.

For assay [6], the target named is Tyrosine-protein kinase receptor Tie-1 (Homo sapiens) (UniProt P35590). The experiment in a line: Selectivity interaction (KinomeScan (DiscoverX)) EUB0000045b TIE1.
Assay [7] deals with Interferon-induced, double-stranded RNA-activated protein kinase (Homo sapiens) (UniProt P19525). The assay can be described thus: Selectivity interaction (LanthaScreen Eu Kinase Binding Assay) EUB0001632a EIF2AK2. As to conditions: at 10 µM. Background: In TR-FRET formats the signal depends on donor and acceptor labels being close together.
Assay [8] addresses Protein arginine N-methyltransferase 1 (Homo sapiens, UniProt Q99873). The experiment in a line: Selectivity interaction (Methyltransferase screen (radiometric assays, panel of 8 PRMTs, 21 protein lysine methyltransferases, 3 DNA methyltransferases, and one RNA methyltransferase)) EUB0000272b PRMT1.

SMILES strings stand for the structures.

Tyrosine-protein kinase Fgr (Homo sapiens), sequence (P09769 2-529 limits assumed): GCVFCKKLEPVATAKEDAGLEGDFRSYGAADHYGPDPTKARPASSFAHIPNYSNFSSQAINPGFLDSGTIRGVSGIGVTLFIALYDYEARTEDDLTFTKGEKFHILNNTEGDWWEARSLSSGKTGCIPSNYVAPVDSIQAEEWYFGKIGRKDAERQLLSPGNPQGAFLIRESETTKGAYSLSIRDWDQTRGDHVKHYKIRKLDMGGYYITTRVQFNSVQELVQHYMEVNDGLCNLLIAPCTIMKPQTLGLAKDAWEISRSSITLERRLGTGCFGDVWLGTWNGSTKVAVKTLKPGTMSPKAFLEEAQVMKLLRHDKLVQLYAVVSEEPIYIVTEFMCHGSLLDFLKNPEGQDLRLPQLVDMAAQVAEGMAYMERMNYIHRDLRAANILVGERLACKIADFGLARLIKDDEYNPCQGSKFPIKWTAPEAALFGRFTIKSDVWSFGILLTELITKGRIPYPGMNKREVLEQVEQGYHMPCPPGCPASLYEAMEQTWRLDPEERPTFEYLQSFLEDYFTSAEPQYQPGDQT
Protein arginine N-methyltransferase 1, sequence (Q99873 whole entry, looked up): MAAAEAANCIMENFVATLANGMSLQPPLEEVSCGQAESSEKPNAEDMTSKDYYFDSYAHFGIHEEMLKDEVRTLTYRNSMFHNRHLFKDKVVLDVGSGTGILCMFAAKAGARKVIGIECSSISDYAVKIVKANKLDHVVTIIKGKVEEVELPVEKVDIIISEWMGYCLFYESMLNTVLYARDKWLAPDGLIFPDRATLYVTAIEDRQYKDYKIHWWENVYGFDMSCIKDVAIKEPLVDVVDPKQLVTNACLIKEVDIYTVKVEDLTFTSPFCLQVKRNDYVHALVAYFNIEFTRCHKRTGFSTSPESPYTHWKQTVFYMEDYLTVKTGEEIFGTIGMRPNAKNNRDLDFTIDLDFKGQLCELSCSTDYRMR
Tyrosine-protein kinase receptor Tie-1 (Homo sapiens), sequence (P35590 whole entry): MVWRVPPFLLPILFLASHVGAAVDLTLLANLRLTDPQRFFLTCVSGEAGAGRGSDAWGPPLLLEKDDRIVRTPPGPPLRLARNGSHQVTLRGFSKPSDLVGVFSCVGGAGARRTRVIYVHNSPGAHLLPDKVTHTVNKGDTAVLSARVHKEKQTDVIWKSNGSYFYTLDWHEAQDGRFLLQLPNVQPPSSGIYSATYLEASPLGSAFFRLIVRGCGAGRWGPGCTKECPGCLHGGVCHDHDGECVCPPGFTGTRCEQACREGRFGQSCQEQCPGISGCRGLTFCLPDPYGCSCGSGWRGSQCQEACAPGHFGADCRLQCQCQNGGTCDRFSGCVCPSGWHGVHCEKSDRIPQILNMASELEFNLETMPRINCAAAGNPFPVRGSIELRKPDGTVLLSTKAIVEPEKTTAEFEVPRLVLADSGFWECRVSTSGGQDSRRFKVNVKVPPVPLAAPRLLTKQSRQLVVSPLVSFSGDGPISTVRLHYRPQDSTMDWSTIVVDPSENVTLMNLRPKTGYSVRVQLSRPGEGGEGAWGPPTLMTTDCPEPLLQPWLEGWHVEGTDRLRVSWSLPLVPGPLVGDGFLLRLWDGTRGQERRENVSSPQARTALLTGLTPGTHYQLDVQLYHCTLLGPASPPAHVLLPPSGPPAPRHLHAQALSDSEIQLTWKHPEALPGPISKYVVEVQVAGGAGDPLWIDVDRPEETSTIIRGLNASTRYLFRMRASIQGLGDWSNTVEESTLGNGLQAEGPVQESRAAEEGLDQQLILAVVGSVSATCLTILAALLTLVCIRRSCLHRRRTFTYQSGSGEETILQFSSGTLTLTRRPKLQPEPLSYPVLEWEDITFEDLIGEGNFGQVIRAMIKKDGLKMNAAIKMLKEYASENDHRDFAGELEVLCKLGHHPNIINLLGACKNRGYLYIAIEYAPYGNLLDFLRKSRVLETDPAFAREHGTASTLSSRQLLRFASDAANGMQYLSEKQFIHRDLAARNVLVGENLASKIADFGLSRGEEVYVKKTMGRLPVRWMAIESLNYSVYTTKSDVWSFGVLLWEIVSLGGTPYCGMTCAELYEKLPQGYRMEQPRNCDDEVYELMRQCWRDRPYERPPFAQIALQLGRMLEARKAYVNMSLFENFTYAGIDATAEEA
Interferon-induced, double-stranded RNA-activated protein kinase (Homo sapiens), sequence (P19525 whole entry): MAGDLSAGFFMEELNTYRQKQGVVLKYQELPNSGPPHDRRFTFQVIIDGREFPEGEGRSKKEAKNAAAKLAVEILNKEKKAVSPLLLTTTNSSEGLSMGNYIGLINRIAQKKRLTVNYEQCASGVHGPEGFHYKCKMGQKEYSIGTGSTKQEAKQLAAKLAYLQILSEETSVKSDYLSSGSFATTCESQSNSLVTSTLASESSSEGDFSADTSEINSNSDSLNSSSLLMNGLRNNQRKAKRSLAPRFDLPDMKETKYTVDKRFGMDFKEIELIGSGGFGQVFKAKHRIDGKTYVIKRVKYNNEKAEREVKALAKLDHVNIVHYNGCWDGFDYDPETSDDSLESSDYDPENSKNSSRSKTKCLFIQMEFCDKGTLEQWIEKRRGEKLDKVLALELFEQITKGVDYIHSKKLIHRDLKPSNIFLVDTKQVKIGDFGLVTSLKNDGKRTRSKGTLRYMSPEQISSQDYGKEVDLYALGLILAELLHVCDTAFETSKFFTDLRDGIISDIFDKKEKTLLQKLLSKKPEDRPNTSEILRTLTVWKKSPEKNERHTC
MAP kinase-interacting serine/threonine-protein kinase 2, sequence (Q9HBH9 whole entry, looked up): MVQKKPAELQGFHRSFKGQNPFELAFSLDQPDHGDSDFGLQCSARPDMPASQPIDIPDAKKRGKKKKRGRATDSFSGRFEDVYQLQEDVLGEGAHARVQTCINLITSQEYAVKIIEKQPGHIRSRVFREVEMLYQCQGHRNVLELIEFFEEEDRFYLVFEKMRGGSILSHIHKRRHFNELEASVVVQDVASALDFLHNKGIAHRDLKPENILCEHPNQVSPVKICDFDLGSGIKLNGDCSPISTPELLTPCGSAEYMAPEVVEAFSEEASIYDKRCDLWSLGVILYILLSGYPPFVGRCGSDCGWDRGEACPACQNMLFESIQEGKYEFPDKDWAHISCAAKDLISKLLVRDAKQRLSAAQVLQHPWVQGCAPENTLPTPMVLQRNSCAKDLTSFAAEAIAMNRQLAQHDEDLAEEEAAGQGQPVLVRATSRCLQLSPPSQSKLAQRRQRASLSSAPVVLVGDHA

In the case of `C=CC(=O)Nc1cccc(C(=O)Nc2ccc(Nc3cc(-c4[nH]c(SC)nc4C)ccn3)cc2)c1`, the % of control in assay [1] (at 1 µM) was 87%; in assay [1] (at 5 µM), 79%. Regarding `Nc1cnc(N2CCc3cc(S(=O)(=O)Nc4c(F)cc(Cl)cc4F)cc(N4CCCC4=O)c32)nc1` [TP-020n], the % of control in assay [2] is 97%.

With `CCC(=O)N1CCN(c2ccc(-n3c(=O)ccc4cnc5ccc(-c6cnc7ccccc7c6)cc5c43)cc2C(F)(F)F)CC1`, the % of control in assay [3] is 54%.

As for `CN(C)CCOc1ccc(-c2nc(-c3ccncc3)c(-c3ccc4c(c3)CC/C4=N\O)[nH]2)cc1`, the figures for the % of control in assay [4] and in assay [5] were 94% and 35%, respectively. As for `C=CC(=O)Nc1cc(-n2c(=O)ccc3cnc4ccc(-c5ccc(NS(C)(=O)=O)cc5)cc4c32)ccc1C`, the % of control in assay [6] (at 1 µM) was 100%; in assay [6] (at 10 µM), 89%. Turning to `Cn1cc(-n2cnc3c(NCc4nc5cc(Cl)c(Cl)cc5[nH]4)nc(N4CCOCC4)nc32)cn1`, in assay [7], the % of inhibition was -80.6%.

In the case of `Cc1cc(C)cc([C@H]2c3cc(C)ccc3NC(=O)CN2C(=O)c2ccc(Br)s2)c1`, the % of activity was determined as 98.7% in assay [8] (at 1 µM) and 101% in assay [8] (at 10 µM).
